Laboratory results published in US10168342B2, “Lipid probes and uses thereof” (THE SCRIPPS RESEARCH INSTITUTE, priority 2015, dated 2019).
Read-outs that look alike come from different tables or passages of the source.

How the values were obtained:
[1] = target: AEA-DA lipid probe targets in Neuro2a cells (Mus musculus, UniProt Q9D8N0)
[2] = target: T1, AEA-DA lipid probe targets in Neuro2a cells (Mus musculus, UniProt Q61207); conditions: for SILAC ratio, PSAP (P07602): Neuro2a cells, AEA-DA probe
T1 sequence (Q61207 60-557): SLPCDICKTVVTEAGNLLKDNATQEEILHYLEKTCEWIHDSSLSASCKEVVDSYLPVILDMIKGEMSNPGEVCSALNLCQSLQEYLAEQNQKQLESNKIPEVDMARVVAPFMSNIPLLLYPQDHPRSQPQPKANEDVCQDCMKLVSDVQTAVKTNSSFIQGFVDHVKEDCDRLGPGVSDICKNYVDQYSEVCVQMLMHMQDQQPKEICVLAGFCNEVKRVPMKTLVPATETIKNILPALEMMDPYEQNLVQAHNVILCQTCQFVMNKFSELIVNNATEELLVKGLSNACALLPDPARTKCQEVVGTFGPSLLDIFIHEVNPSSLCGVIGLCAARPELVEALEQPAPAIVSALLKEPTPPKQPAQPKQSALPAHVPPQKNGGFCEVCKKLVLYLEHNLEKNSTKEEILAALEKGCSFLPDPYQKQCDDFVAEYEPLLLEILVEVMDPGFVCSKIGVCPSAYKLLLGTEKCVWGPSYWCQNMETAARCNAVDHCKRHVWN

[3] = target: T2, AEA-DA lipid probe targets in Neuro2a cells (Mus musculus, UniProt Q8BMK4)
T2 sequence (Q8BMK4 1-575): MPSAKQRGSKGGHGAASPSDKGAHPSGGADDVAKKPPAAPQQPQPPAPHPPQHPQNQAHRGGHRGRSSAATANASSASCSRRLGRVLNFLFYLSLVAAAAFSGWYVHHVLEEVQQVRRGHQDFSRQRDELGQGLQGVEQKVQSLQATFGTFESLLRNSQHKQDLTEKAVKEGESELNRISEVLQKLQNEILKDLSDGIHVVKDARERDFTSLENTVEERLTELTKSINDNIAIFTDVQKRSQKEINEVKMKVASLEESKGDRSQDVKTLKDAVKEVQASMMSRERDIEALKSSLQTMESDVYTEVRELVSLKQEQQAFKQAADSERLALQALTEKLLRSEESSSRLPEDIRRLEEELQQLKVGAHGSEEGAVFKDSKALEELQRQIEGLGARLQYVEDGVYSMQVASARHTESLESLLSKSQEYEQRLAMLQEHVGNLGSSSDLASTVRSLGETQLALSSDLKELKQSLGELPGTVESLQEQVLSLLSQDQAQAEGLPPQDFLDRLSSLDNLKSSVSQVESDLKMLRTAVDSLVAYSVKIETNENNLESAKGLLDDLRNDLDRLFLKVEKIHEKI

[4] = target: T3, AEA-DA lipid probe targets in Neuro2a cells (Mus musculus, UniProt Q60605)
T3 sequence (Q60605 1-151): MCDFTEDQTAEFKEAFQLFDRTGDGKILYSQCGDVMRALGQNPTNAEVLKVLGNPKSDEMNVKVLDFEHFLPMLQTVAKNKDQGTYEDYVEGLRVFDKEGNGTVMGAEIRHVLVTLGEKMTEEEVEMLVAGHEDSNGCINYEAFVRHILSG

[5] = target: T4, AEA-DA lipid probe targets in Neuro2a cells (Mus musculus, UniProt Q8K2C9)
T4 sequence (Q8K2C9 1-362): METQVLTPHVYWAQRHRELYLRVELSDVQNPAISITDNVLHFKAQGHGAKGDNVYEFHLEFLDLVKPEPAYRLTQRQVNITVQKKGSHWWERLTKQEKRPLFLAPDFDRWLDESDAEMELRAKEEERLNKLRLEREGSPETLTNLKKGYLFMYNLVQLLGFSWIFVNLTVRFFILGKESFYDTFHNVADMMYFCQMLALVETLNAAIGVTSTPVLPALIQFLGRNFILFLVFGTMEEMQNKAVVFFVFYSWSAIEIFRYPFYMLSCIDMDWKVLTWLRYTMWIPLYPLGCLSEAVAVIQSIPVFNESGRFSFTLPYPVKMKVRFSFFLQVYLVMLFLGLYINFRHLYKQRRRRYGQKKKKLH

[6] = target: T5, AEA-DA lipid probe targets in Neuro2a cells (Mus musculus, UniProt Q8C0L0)
T5 sequence (Q8C0L0 21-335): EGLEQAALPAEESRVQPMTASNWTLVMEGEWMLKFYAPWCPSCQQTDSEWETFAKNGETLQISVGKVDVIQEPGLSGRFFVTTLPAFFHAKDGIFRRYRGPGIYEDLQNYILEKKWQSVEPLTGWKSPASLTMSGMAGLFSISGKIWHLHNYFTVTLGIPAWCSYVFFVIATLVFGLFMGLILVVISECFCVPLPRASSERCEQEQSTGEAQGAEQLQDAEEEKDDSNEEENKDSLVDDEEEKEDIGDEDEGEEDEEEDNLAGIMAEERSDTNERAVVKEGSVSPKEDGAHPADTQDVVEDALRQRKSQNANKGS

[7] = target: T6, AEA-DA lipid probe targets in Neuro2a cells (Mus musculus, UniProt Q8CHK3)
T6 sequence (Q8CHK3 1-473): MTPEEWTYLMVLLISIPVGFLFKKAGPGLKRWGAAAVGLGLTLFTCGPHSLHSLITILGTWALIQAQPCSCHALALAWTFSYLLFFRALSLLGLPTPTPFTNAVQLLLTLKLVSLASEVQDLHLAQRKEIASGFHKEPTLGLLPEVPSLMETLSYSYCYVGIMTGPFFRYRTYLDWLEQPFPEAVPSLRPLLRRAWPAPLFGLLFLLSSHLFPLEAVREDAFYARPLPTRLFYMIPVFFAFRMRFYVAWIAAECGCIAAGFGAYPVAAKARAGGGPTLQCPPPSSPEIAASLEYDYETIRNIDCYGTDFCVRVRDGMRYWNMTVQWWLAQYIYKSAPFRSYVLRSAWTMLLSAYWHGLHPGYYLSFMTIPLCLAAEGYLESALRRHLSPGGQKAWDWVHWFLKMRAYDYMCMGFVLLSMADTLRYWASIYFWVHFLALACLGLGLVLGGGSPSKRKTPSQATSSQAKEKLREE

Chain of AEA-DA lipid probe targets in Neuro2a cells (Mus musculus, UniProt Q9D8N0) (Q9D8N0 whole entry): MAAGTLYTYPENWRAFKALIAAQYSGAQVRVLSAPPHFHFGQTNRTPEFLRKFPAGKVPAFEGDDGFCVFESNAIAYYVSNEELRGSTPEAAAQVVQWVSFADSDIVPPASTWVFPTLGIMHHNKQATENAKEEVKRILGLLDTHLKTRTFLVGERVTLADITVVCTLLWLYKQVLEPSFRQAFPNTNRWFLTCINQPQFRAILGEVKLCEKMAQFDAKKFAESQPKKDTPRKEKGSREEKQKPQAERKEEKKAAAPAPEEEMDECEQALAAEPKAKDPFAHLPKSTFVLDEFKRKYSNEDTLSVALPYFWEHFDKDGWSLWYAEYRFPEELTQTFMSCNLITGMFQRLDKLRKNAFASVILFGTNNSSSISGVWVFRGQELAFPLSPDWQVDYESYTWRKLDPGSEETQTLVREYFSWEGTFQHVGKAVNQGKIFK

SMILES	SILAC ratio Eef1g ([1]; competitor 25 μM)	SILAC ratio, Mboat7 ([7]; competitor 25 μM)	SILAC ratio, PSAP (P07602) ([2]; competitor 25 μM)	SILAC ratio Psap ([2]; competitor 25 μM)	SILAC ratio, Ckap4 ([3]; competitor 25 μM)	SILAC ratio Myl6 ([4]; competitor 25 μM)	SILAC ratio ptplad1 ([5]; competitor 25 μM)	SILAC ratio Tmx4 ([6]; competitor 25 μM)	also measured
CCCCC/C=C\C/C=C\C/C=C\C/C=C\CCCC(=O)NCCO [AEA, anandamide, reference compound]									SILAC ratio Eef1g ([1]; competitor 200 μM): 1.4; SILAC ratio, PSAP (P07602) ([2]; competitor 200 μM): 1.4; SILAC ratio Psap ([2]; competitor 200 μM): 1.4; SILAC ratio, Ckap4 ([3]; competitor 200 μM): 2.0; SILAC ratio Myl6 ([4]; competitor 200 μM): 1.0; SILAC ratio ptplad1 ([5]; competitor 200 μM): 1.8; SILAC ratio Tmx4 ([6]; competitor 200 μM): 1.9
O=C(/C=C/c1cccnc1)NCCCCC1CCN(C(=O)c2ccccc2)CC1 [FK-866, reference compound]	1.5	1.1	1.0	1.0	1.1	1.3	1.2	1.0	
CN1CCN(C(=O)c2c(-c3ccccc3)c3cc([N+](=O)[O-])ccc3n2C)CC1 [KML110, (1-Methyl-5-nitro-3-phenyl-1H-indol-2-yl)(4-methylpiperazin-1-yl)methanone]	1.4	1.7		1.3	1.4	1.4	1.7	1.4	
CN1CCN(C(=O)c2[nH]c3ccc([N+](=O)[O-])cc3c2-c2ccccc2)CC1 [MJN228, (4-Methylpiperazin-1-yl)(5-nitro-3-phenyl-1H-indol-2-yl)methanone]	1.1	1.6	1.4	1.4	1.4	1.0	1.7	1.3	SILAC ratio Eef1g ([1]; competitor 10 μM): 1.1; SILAC ratio Eef1g ([1]; competitor 50 μM): 1.0; SILAC ratio Eef1g ([1]; competitor 100 μM): 1.3; SILAC ratio, Mboat7 ([7]; competitor 10 μM): 1.2; SILAC ratio, Mboat7 ([7]; competitor 50 μM): 1.9; SILAC ratio, Mboat7 ([7]; competitor 100 μM): 2.3; SILAC ratio Psap ([2]; competitor 10 μM): 1.1; SILAC ratio Psap ([2]; competitor 50 μM): 1.4; SILAC ratio Psap ([2]; competitor 100 μM): 1.6; SILAC ratio, Ckap4 ([3]; competitor 10 μM): 1.3; SILAC ratio, Ckap4 ([3]; competitor 50 μM): 1.3; SILAC ratio, Ckap4 ([3]; competitor 100 μM): 1.8; SILAC ratio Myl6 ([4]; competitor 10 μM): 1.1; SILAC ratio Myl6 ([4]; competitor 50 μM): 1.3; SILAC ratio ptplad1 ([5]; competitor 10 μM): 1.3; SILAC ratio ptplad1 ([5]; competitor 50 μM): 1.9; SILAC ratio ptplad1 ([5]; competitor 100 μM): 2.3; SILAC ratio Tmx4 ([6]; competitor 10 μM): 1.0; SILAC ratio Tmx4 ([6]; competitor 50 μM): 1.3; SILAC ratio Tmx4 ([6]; competitor 100 μM): 1.6
C=CCN(C)CCCCCCOc1ccc(C(=O)c2ccc(Br)cc2)c(F)c1 [Ro 48-8071, reference compound]	0.9	1.1	1.0	1.0	1.1	0.7	1.4	1.2	
